# Results reported in patent publication US20190359560A1, “ANTI-INFLAMMATORY DRUG AND USES THEREOF” (KYUSHU UNIVERSITY, NATIONAL UNIVERSITY CORPORATION, priority 2015, published 2019).
# pIC50: −log10 of the molar value.
# Key:
# G0S2 = assay: Inhibition of the expression of G0S2 (stated, test not specified); format: cell-based
# Text: (§1) Mouse hepatocytes were homogenized to extract proteins from the cytoplasm and nucleus. […] The chemical formulae of Compounds #142 and #151 are shown in General Formulae (13) and (14), respectively.
# G0S2 mRNA [1] = assay: G0S2 mRNA expression in Hepa1-6 cells (qRT-PCR); format: cell-based, mouse; settings: for expression level of G0S2 mRNA: 10 μM, 24 hours; for G0S2 mRNA expression level: 48 hours, vs DMSO
# Method: The effect of the compound on the expression level of mRNA of the G0S2 gene was evaluated for the three compounds extracted so far. 24 hours after seeding with Hepa1-6 cells, the cells were exposed to hit compounds at 10 μM and sampling and total RNA extraction were carried out 24 hours later. Subsequently, changes in the expression level of mRNA of the G0S2 gene were measured by a qRT-PCR method.
# Hepa1-6 cells were exposed to 10 μM of each of seven derivatives of Compound No. 2 (Examples 2 and 4 to 9) and an effect of the derivative compounds on the expression level of G0S2 mRNA after 24 hours was evaluated.
# Therefore, Hepa1-6 cells were exposed to Compound No. 2 and the compound of Example 2 (NS-3-011) in the range of 0.5 to 5 μM and an effect of the compounds on the expression level of endogenous G0S2 mRNA after 48 hours was evaluated.
# Subsequently, Hepa1-6 cells were transfected with siRNA against Hsd17b4 or control siRNA in the presence (10 μM) or absence (indicated as “DMSO” in FIG. 22B) of Compound No. 2. Subsequently, each cell was recovered after 48 hours and total RNA was extracted. Subsequently, the expression level of the G0S2 gene was quantified by real-time PCR.
# [2] = test system: DEN-induced hepatitis/hepatoma mouse model; assay: DEN-induced hepatitis/hepatoma mouse model: hepatoma/tumor formation in liver after 14 weeks; format: in vivo; settings: 15 mg/kg in drinking water
# Method: Mice of a diethylnitrosamine (DEN)-induced hepatitis/hepatoma mouse model were divided into two groups, one receiving siRNA against G0S2 (G0S2 siRNA-administered group) and the other receiving negative control siRNA (control siRNA-administered group). Administration of siRNA to mice was carried out by tail vein administration of 1.6 nmol/mouse using a nucleic acid transfection reagent (trade name “LipoTrust™ EX Oligo <in vivo>, Hokkaido System Science Co., Ltd.). As the siRNA against G0S2, commercially available siRNA (Life Technologies, Inc., trade name “Stealth siRNA”, catalog number “#1320001”, the base sequence of the antisense strand is set forth in SEQ ID NO: 3) was used. As the control siRNA, a commercially available siRNA (Life Technologies, Inc., the base sequence of the antisense strand is set forth in SEQ ID NO: 4) was used.
# Subsequently, mice of the same G0S2 siRNA-administered group and control siRNA-administered group as above were prepared. DEN was added to drinking water at a concentration of 80 mg/L from one day after the administration of siRNA to mice, and mice were sacrificed after 14 weeks of breeding and then subjected to analysis. As a result, the onset of hepatoma was inhibited in mice of the G0S2 siRNA-administered group.
# (§2) Diethylnitrosamine (DEN) dissolved in water at a concentration of 80 mg/L as drinking water was administered in drinking water to ICR mice, thereby inducing chronic inflammation and hepatoma in the liver. In addition, a group in which 15 mg/kg of the compound of Example 10 (NS-3-086) was administered in drinking water from immediately after the start of administration of DEN in drinking water was prepared. As a control group, a group given tap water as drinking water was used.
# Subsequently, mice of each group were sacrificed 14 weeks after the start of administration of DEN in drinking water, and the liver was excised and analyzed. FIGS. 28A, 28B and 28C are photographs of the liver at 14 weeks after the start of administration of DEN in drinking water.
# [3] = test system: alanine aminotransferase (ALT) activity in serum; assay: Serum ALT activity in DEN-induced hepatitis/hepatoma mouse model; format: in vivo; settings: ICR mice, DEN 80 mg/L, 15 mg/kg in drinking water, 8 weeks and 12 weeks
# Method: as §2, with “inflammation” for “inflammation and hepatoma”
# Subsequently, 8 weeks and 12 weeks after the start of administration of DEN in drinking water, blood was collected from the tails of mice of each group, and the alanine aminotransferase (ALT) activity in serum was measured using a commercially available kit (“Transaminase CII-Test Wako”, manufactured by Wako Pure Chemical Industries, Ltd.).
# [4] = biological target: T1, Hsd17b4 (Peroxisomal multifunctional enzyme type 2) (Mus musculus, UniProt P51660); assay: Pull-down assay with avidin beads and LC/MS/MS identification of target protein; format: binding; settings: proteins from mouse hepatocytes, avidin beads
# T1 construct: Mouse hepatocytes were homogenized to extract proteins from the cytoplasm and nucleus; endogenous in cells; host or cells: mouse hepatocytes (homogenate, cytoplasmic and nuclear proteins)
# T1 sequence (P51660 1-735): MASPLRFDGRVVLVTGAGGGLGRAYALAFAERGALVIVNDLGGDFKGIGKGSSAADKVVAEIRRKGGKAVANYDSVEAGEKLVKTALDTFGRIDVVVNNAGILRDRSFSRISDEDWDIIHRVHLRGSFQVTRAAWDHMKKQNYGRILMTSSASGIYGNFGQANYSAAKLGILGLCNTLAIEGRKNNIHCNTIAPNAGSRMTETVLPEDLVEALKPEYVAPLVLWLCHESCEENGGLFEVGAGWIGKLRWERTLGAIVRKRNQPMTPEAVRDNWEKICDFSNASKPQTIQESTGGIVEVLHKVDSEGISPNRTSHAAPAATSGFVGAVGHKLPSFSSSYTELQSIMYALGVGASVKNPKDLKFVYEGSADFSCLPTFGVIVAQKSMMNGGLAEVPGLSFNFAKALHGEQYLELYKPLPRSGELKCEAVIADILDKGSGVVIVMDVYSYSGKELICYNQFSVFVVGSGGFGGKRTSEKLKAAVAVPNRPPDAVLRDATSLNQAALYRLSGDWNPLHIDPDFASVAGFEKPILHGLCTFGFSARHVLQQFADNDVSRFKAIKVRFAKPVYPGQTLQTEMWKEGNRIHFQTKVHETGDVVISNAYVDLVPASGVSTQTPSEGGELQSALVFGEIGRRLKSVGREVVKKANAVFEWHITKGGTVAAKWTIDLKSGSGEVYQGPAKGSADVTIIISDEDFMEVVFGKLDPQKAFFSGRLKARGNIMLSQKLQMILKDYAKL
# Method: as §1
# Thereafter, a pull-down assay was carried out with avidin-labeled magnetic beads (hereinafter, sometimes referred to as “avidin beads”), and the compounds and proteins bound to the avidin beads were subjected to acrylamide gel electrophoresis. The acrylamide gel after subjecting to electrophoresis was negatively stained, a band of a protein specifically bound to Compound #142 was excised, and the protein was identified by an LC/MS/MS analysis.
# FIG. 17 is a photograph showing the results of acrylamide gel electrophoresis.
# [5] = test system: G0S2 promoter (−2030→+10); assay: G0S2 promoter (−2030→+10) luciferase assay in Hepa1-6 cells; format: cell-based, mouse; settings: Hepa1-6 reporter cells, 10 μM, 24 hours
# Method: To get closer to the environment in the liver, a cell stably expressing an expression cassette in which a luciferase gene was ligated to the downstream side of the G0S2 promoter (−2030→+10) was constructed in the Hepa1-6 cell, which is a mouse hepatoma-derived cell. Using this cell, an effect of the candidate compounds on the luciferase activity was evaluated in the same manner as in the primary screening described above.
# Bmal1 promoter = Bmal1 promoter luciferase assay in MEF cell line; format: cell-based; settings: MEF reporter cell line, 10 μM, 24 hours
# Method: Therefore, in order to exclude compounds having an effect on clock genes in normal cells, studies were conducted using the MEF cell line stably expressing an expression cassette in which a luciferase gene was ligated to the downstream side of the Bmal1 promoter.
# [6] = test system: nuclear receptor RARα mRNA; assay: RARα mRNA expression in Hepa1-6 cells (qRT-PCR); format: cell-based, mouse; settings: 10 μM, 24 hours
# G0S2 promoter = G0S2 promoter luciferase activity in O-4000E cell line, IC50; format: cell-based, mouse; settings: Mus musculus, 24 h, O-4000E cells, 24 hours after exposure
# Method: The present inventors have searched for a G0S2 gene transcription inhibitor. In searching, the present inventors have received a compound library consisting of 9600 compounds (Core library) from the Open Innovation Center for Drug Discovery, The University of Tokyo. For this compound library, primary screening was carried out by evaluating an effect of compounds on a luciferase activity using a 384-well plate. The drug efficacy evaluation was studied three times for each compound (final concentration of 10 μM) using a cell line stably expressing an expression cassette in which a luciferase gene was ligated to the downstream side of the G0S2 promoter (−2030→−1378), and compounds which reduced a luciferase activity to less than ¼ were extracted from all studies. As a result, 175 compounds were hit.
# For the evaluation of drug efficacy of Compound Nos. 1 and 2, which are hit compounds, an IC50 was calculated. The O-4000E cell line was seeded, and Compound Nos. 1 and 2 were serially diluted in […] so as to have final concentrations of 0.15625 μM to 10 μM, followed by exposure of the cells to the compounds. The luciferase activity was measured 24 hours after the exposure, and the curve fitting was carried out to calculate an IC50 of the compounds.
# Detailed drug efficacy evaluation at low concentrations was carried out for the compound of Example 2 (NS-3-011) whose drug efficacy at a concentration of less than 10 μM was observed based on the studies so far and which is expected to have an effect equal to or more than that of Compound No. 2. First, using O-4000E cells, IC50 of Compound No. 2 and the compound of Example 2 (NS-3-011) on the G0S2 promoter activity was calculated.
# Hsd17b4 gene = assay: Hsd17b4 knockdown in Hepa1-6 cells: Hsd17b4 gene expression (real-time PCR); format: cell-based, mouse; settings: 48 hours after transfection, vs control siRNA
# Text: Hepα1-6 cells, which are mouse hepatoma-derived cells, were divided into two groups, in which one group was transfected with siRNA against Hsd17b4 and the other group was transfected with control siRNA. The base sequence of the sense strand of siRNA against Hsd17b4 is set forth in SEQ ID NO: 7, and the base sequence of the antisense strand thereof is set forth in SEQ ID NO: 8. In addition, commercially available siRNA (Life Technologies, Inc., the base sequence of the antisense strand is set forth in SEQ ID NO: 4) was used as the control siRNA.
# Subsequently, each cell was recovered after 48 hours and total RNA was extracted. Subsequently, the expression level of the Hsd17b4 gene was quantified by real-time PCR.
# G0S2 mRNA [7] = assay: G0S2 mRNA expression in human HepG2 cells; format: cell-based; settings: 10 μM, 24 hours
# [8] = ICR mice, DEN 80 mg/L, 14 weeks
# [9] = liver, 14 weeks after start of DEN in drinking water
molecule,measurement,setting,value
N=C(NCCCCCO)NCc1ccccc1 [Comparative Example 1],inhibition of the expression of G0S2,G0S2,not inhibiting the expression of G0S2
CCCCCCN/C(=N\C(=O)OC(C)(C)C)NCc1ccccc1 [Example 4],expression level of G0S2 mRNA,G0S2 mRNA [1],up to the same extent as that of Compound 2
CCCCCCCCCCCCNC(=N)NCc1cc(C(F)(F)F)cc(C(F)(F)F)c1 [Example 10],hepatic hardening,[2]; [8],inhibited
same,tumor formation in the liver,[2]; [8],inhibited
same,mice (n) with large number of tumors,[2]; [9],0 n
same,mice (n) with number of tumors 0,[2]; [9],3 n
same,mice (n) with number of tumors 1,[2]; [9],3 n
same,increase in serum ALT activity by DEN drinking water,[3],inhibited
CCCCCCCCCCCCNC(=N)NCc1ccc(OCc2cn(CCOCCOCCOCCNC(=O)CCCC[C@@H]3SC[C@@H]4NC(=O)N[C@@H]43)nn2)cc1 [#142],protein specifically bound in pull-down assay (band of about 75 kDa),[4],Hsd17b4
CC(=O)Nc1cccc(NC(=O)CSc2nc(=O)n(N3CCN(C)CC3)c3c2CCC3)c1 [Compound No. 1],G0S2 promoter (−2030→+10) activity (relative value),[5],less than ½
same,Bmal1 promoter activity,Bmal1 promoter,no significant change
same,expression level of nuclear receptor RARα mRNA,[6],no change
same,pIC50,G0S2 promoter,5.30
O=C(Nc1cccc(S(=O)(=O)c2cccc(NC(=O)C3CC3)c2)c1)C1CC1 [Compound No. 3],G0S2 promoter (−2030→+10) activity (relative value),[5],less than ½
same,Bmal1 promoter activity,Bmal1 promoter,no significant change
same,expression level of nuclear receptor RARα mRNA,[6],significant decrease
"siRNA against Hsd17b4: siRNA against Hsd17b4, sense strand SEQ ID NO: 7, antisense strand SEQ ID NO: 8 (sense GAGCAUUAGUCAUUGUGAACGACUU; antisense AAGUCGUUCACAAUGACUAAUGCUC; listed as RNA, chemistry not given here)",expression of Hsd17b4,Hsd17b4 gene,inhibited
CCCCCCNC(=N)NCCc1ccccc1 [Example 6],G0S2 mRNA expression level,G0S2 mRNA [1]; 2.5 μM,significant decrease
same,G0S2 mRNA expression level,G0S2 mRNA [1]; 5 μM,significant decrease
same,expression level of G0S2 mRNA,G0S2 mRNA [1],up to the same extent as that of Compound 2
same,expression level of G0S2 mRNA,G0S2 mRNA [7],significant decrease
